Results on three molecules are retold here after article PMC11483378, “Triazole-Based Thiamine Analogues as Inhibitors of Thiamine Pyrophosphate-Dependent Enzymes: 1,3-Dicarboxylate for Metal Binding” (ACS Omega, 2024).

In general, Km refers to the concentration of substrate that gives half-maximal velocity. By solubility is commonly meant the concentration that dissolves in the medium under given conditions.

For series [1], the target named is A. viridans PO (Aerococcus viridans, UniProt A9X9K8). Nature of the series: A. viridans PO inhibitory activity assay (quinoneimine dye). The format is biochemical. Particulars: read-out: KM(TPP). The procedure:
A. viridans PO and horseradish peroxidase were purchased from Sigma. A. viridans PO activity was determined by monitoring appearance of quinoneimine dye at 550 nm using a microplate reader (CLARIOstar) and conducted as described[5] with some modifications. […] The reaction buffer (50 mM KH2PO4 and 10 mM MgCl2, pH 5.9) contained TPP at specified concentrations, 10 μM flavin adenine dinucleotide, 0.15% 4-aminoantipyrine, 0.3% N-ethyl-N-(2-hydroxy-3-sulfopropyl)-m-toluidine (EHSPT), 50 μg/mL horseradish peroxidase, and 0.35 U/mL A. viridans PO. The reaction mixture was preincubated at 37 °C with inhibitor for 30 min, and then the reaction was initiated by adding pyruvate to a final concentration of 50 mM. To determine the IC50, TPP concentration was set at 60 μM with varying inhibitor concentrations. One unit of PO activity is defined as the production of 1 μmol of hydrogen peroxide per minute. The IC50 values were calculated from nonlinear regression curve fitting using GraphPad Prism.
(§1) Enzyme inhibitory activity assays – methods and results (Figures S1-4) […]
(§2) The compound […]
A. viridans PO inhibitory activity assay. A. viridans PO and horseradish peroxidase were purchased from Sigma. A. viridans PO activity was determined by monitoring appearance of quinoneimine dye at 550 nm using a microplate reader (CLARIOstar) and conducted as described3 with some modifications. […]
buffer (50 mM KH2PO4 and 10 mM MgCl2, pH 5.9) contained TPP at specified concentrations, 10 µM flavin adenine dinucleotide (FAD), 0.15% 4-aminoantipyrine, 0.3% N-ethyl-N-(2-hydroxy-3-sulfopropyl)-m-toluidine (EHSPT), 50 µg/mL horseradish peroxidase and 0.35 U/mL A. viridans PO. The reaction mixture was preincubated at 37 °C with inhibitor for 30 min, then reaction was initiated by adding pyruvate to a final concentration of 50 mM. To determine the IC50, TPP concentration was set was set at 60 µM with varying inhibitor concentrations. One unit of PO activity is defined as the production of 1 μmol of hydrogen peroxide per minute. The IC 50 values were calculated from non-linear regression curve fitting using GraphPad Prism. […]

Series [2] has as its target E. coli OGDH E1 (Escherichia coli, UniProt P0AFG3). The series is described as follows: E. coli OGDH E1 inhibitory activity assay (DCPIP reduction). In kind it is biochemical. The following applies: compound at 200 μM, assay conditions of previous study. On the procedure: E. coli OGDH E1 was from material donated by R. Frank. E. coli OGDH E1 activity was determined by monitoring DCPIP reduction at 600 nm using a microplate reader (CLARIOstar) and conducted as described[5] with some modifications. […] The reaction buffer (50 mM KH2PO4 and 2 mM MgCl2, pH 7) contained TPP at specified concentrations, 0.5 mM DCPIP, and 6.7 mg/mL E. coli OGDH E1. The reaction mixture was preincubated at 37 °C with the inhibitor for 60 min, and then the reaction was initiated by adding α-ketoglutarate to a final concentration of 10 mM. To determine the IC50, the TPP concentration was set at 60 μM with varying inhibitor concentrations. Specific activity was calculated using the molar extinction coefficient of DCPIP, 21 mM^–1 cm^–1.[28] The IC50 values were calculated from nonlinear regression curve fitting using GraphPad Prism.
as §1, §2
E. coli OGDH E1 inhibitory activity assay. E. coli OGDH E1 was from material donated by R. Frank. E. coli OGDH E1 activity was determined by monitoring DCPIP reduction at 600 nm using a microplate reader (CLARIOstar) and conducted as described3 with some modifications. The percentage inhibition of compounds against E. coli OGDH E1 was assayed at 250 μM. The reaction buffer (50 mM KH 2PO4 and 2 mM MgCl2, pH 7) contained TPP at specified concentrations, 0.5 mM DCPIP, and 6.7 mg/ml E. coli OGDH E1. The reaction mixture was preincubated at 37 °C with the inhibitor for 60 min, then reaction was initiated by adding α-ketoglutarate to a final concentration of 10 mM. To determine the IC50, TPP concentration was set at 60 µM with varying inhibitor concentrations. Specific activity was […]

The nature of series [3]: PAMPA (parallel artificial membrane permeability assay). The format is in vitro ADME. The procedure: PAMPA – methods and results (Table S2)
PAMPA was carried out in 96-well microtiter filter plates obtained from Millipore as described1 with some modifications. Each well of the filter plate was impregnated with 15 µL of 5% hexadecane dissolved in hexane (i.e. total amount of hexadecane: 0.75 µL) for at least 10 minutes in ventilated environment to allow for complete evaporation of hexane. Donor compartments were filled with 200 µL compound-containing donor solutions of compounds dissolved in 5% DMSO, phosphate buffered saline PBS) and connected to acceptor plate prefilled with buffer (5% DMSO in PBS, pH 7.4). The resulting sandwich was incubated at room temperature under gentle shaking and wrapped in wet paper towels to avoid evaporation. After 10 hours, the sandwich was disassembled and the solutions in the acceptor and donor were transferred to a disposable UV-transparent plate. UV absorption was measured at wavelengths between 220 and 340 nm using a microplate reader (CLARIOstar).
Compounds were tested at 500 µM. Calibration to determine concentration of compounds were performed with varying compound concentrations in buffer (5% DMSO in PBS).
The artificial membrane permeability is expressed as fraction absorbed (Fa%)2 or log Pe (log of the effective permeability)1. LogD values at pH 7.4 were calculated using MarvinSketch.
Fa% = 100 ∙CA ∙VA / CD0 ∙ VD where: CA = final drug concentration in the acceptor well (µM)
VA = volume in the acceptor well (cm3)
CD0 = Initial drug concentration in the donor well (µM)
VD = volume in the donor well (cm3) log P (cm/s) = log -ln 1-CA/Cequilibrium
S = surface area (cm2), typically 0.268 cm2
Cequilibrium = theoretical equilibrium concentration = [CD ∙VD+CA ∙VA] / [VD+VA] where: CD = final drug concentration in the donor well (µM)
CA = final drug concentration in the acceptor well (µM)
Table S2. Permeability data.
Compounds Fa (%) PAMPA log Pe (cm/s) cLogD (pH = 7.4)
(In general: In PAMPA a lipid-coated filter parts donor from acceptor wells.)

The target of series [4] is T1, Porcine PDH E1 (Sus scrofa, UniProt P29804).
T1 sequence (P29804 31-390): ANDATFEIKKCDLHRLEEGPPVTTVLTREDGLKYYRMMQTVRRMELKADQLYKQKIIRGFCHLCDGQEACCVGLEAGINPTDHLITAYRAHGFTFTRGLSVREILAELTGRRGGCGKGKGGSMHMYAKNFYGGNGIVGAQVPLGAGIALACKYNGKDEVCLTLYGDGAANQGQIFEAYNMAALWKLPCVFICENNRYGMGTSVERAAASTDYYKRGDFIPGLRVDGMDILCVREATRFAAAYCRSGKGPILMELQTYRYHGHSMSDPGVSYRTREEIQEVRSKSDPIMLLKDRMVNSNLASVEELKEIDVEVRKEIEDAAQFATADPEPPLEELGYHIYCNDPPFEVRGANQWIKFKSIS
The series is described as follows: Porcine PDH E1 inhibitory activity assay (DCPIP reduction). The format is biochemical. On the procedure: Porcine PDH E1 was purchased from Sigma. Porcine PDH E1 activity was determined by monitoring 2,6-dichlorophenolindophenol (DCPIP) reduction at 600 nm using a microplate reader (CLARIOstar) and conducted as described[5] with some modifications. […] The reaction buffer (50 mM KH2PO4 and 1 mM MgCl2, pH 7) contained thiamine pyrophosphate (TPP) at specified concentrations, 0.25 mM DCPIP, and 2 mg/mL porcine PDH E1. The reaction mixture was preincubated at 37 °C with the inhibitor for 30 min, and then the reaction was initiated by adding pyruvate to a final concentration of 50 mM. To determine the half-maximal inhibitory concentration (IC50), the TPP concentration was set at 60 μM with varying inhibitor concentrations. Specific activity was calculated using the molar extinction coefficient of DCPIP, 21 mM^–1 cm^–1.[28] The IC50 values were calculated from nonlinear regression curve fitting using GraphPad Prism.
Porcine PDH E1 inhibitory activity assay. Porcine PDH E1 was purchased from Sigma. Porcine PDH E1 activity was determined by monitoring 2,6-dichlorophenolindophenol (DCPIP) reduction at 600 nm using a microplate reader (CLARIOstar) and conducted as described3 with some modifications. The […]
buffer (50 mM KH2PO4 and 1 mM MgCl2, pH 7) contained thiamine pyrophosphate (TPP) at specified concentrations, 0.25 mM 2,6-dichlorophenolindophenol (DCPIP), and 2 mg/mL porcine PDH E1. The reaction mixture was preincubated at 37 °C with the inhibitor for 30 min, then reaction was initiated by adding pyruvate to a final concentration of 50 mM. To determine the half-maximal inhibitory concentration (IC50), TPP concentration was set at 60 µM with varying inhibitor concentrations. […]
values were calculated from non-linear regression curve fitting using GraphPad Prism. […]

Series [5] in a line: Solubility in aqueous buffer / enzyme assay conditions. In kind it is physicochemical.
Substrate in series [6]: Cc1ncc(C[n+]2csc(CCO[P@](=O)(O)OP(=O)(O)O)c2C)c(N)n1
Nature of the series: S. cerevisiae PDC inhibitory activity assay (DCPIP reduction). Particulars: 37.0 °C. The format is biochemical, Saccharomyces cerevisiae. On the procedure:
S. cerevisiae PDC was purchased from Sigma. S. cerevisiae PDC activity was determined by monitoring DCPIP reduction at 600 nm using a microplate reader (CLARIOstar) and conducted as described[5] with some modifications. […] The reaction buffer (50 mM KH2PO4 and 1 mM MgCl2, pH 7) contained TPP at specified concentrations, 0.27 mM DCPIP, and 0.15 mg/mL S. cerevisiae PDC. The reaction mixture was preincubated at 37 °C with the inhibitor for 60 min, and then the reaction was initiated by adding pyruvate to a final concentration of 70 mM. […] Specific activity was calculated using the molar extinction coefficient of DCPIP, 21 mM^–1 cm^–1.[28] The IC50 values were calculated from nonlinear regression curve fitting using GraphPad Prism.
as §1, §2
S. cerevisiae PDC inhibitory activity assay. S. cerevisiae PDC was purchased from Sigma. S. cerevisiae PDC activity was determined by monitoring DCPIP reduction at 600 nm using a microplate reader (CLARIOstar) and conducted as described3 with some modifications. The percentage inhibition of compounds against S. cerevisiae PDC was assayed at 750 μM. The reaction buffer (50 mM KH 2PO4 and 1 mM MgCl2, pH 7) contained TPP at specified concentrations, 0.27 mM DCPIP, and 0.15 mg/ml S. cerevisiae PDC. […]
calculated from non-linear regression curve fitting using GraphPad Prism. […]

E. coli OGDH E1, sequence (P0AFG3 whole entry): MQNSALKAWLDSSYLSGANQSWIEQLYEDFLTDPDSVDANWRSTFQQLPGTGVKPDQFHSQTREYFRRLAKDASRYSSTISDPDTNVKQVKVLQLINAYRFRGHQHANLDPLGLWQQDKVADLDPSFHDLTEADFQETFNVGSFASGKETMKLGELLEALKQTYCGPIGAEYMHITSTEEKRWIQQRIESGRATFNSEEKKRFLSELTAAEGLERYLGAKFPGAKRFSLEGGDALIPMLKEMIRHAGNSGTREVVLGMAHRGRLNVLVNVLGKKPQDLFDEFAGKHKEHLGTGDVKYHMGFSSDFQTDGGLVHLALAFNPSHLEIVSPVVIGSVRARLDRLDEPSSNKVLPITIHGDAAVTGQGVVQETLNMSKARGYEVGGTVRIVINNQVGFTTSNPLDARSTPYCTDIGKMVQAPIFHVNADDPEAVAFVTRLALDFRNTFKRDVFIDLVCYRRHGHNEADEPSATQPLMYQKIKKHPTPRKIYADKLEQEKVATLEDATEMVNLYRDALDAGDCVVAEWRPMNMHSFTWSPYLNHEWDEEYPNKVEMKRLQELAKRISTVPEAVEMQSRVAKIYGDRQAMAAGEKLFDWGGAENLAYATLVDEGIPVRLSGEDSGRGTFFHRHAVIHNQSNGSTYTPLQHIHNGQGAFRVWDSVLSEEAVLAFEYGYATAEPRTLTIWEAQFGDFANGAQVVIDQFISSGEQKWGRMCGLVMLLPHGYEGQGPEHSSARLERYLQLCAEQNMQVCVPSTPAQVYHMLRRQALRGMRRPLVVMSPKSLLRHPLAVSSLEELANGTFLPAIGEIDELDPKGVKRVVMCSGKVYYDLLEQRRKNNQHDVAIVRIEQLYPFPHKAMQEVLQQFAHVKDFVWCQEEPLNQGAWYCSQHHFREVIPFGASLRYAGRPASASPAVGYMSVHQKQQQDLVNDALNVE
A. viridans PO, sequence (A9X9K8 entry or part of it): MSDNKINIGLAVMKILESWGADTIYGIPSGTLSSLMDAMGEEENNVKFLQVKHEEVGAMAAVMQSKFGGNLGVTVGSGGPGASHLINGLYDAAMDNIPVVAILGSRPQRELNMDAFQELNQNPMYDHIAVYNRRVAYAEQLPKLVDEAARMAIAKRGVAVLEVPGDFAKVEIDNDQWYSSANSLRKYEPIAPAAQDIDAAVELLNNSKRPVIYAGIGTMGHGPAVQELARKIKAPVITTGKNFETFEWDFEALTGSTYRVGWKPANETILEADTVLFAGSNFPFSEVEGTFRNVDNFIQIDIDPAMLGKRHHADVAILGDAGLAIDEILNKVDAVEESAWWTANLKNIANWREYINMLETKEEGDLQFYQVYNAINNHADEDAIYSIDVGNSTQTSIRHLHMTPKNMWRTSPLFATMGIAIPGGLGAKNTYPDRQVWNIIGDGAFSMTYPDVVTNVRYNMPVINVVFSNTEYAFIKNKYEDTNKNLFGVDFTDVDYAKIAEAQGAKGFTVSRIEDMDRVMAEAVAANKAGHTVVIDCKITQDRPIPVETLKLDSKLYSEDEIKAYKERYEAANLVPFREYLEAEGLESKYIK

Consider `Cc1ncc(C[n+]2csc(CCO[P@](=O)(O)OP(=O)(O)O)c2C)c(N)n1` [TPP, thiamine pyrophosphate], for which the Km in series [1] was 5 µM.
With `CCC(CC)COC(=O)[C@H](C)NP(=O)(OCCc1cn(Cc2cnc(C)nc2N)nn1)Oc1ccccc1` (stereo partly drawn) [compound 12], the inhibition entry in series [2] was “no inhibition”; in series [4] (compound at 10 μM, assay conditions of previous study) it was “no inhibition”; in series [4] (compound at 100 μM) it was “no inhibition”. Besides, in series [3] (PAMPA), the “membrane permeability in PAMPA (in words)” value is recorded as “membrane-permeable”. Further, in series [3] (PAMPA, compounds at 500 µM, 5% DMSO in PBS pH 7.4, 10 hours, room temperature, read-out: PAMPA log Pe (converted)), the Papp at 10 h, 500 µM is 7.94 ×10⁻⁶ cm/s. The “Fa (fraction absorbed)” value in series [3] (compounds at 500 µM, 5% DMSO in PBS pH 7.4, 10 hours, room temperature) was determined as 48%. Also, the “solubility under the enzyme assay conditions” value in series [5] (OGDH E1 assay, 300 μM) is recorded as “insufficiently soluble”; in series [5] (PDC assay conditions, 1300 μM) it was “not sufficiently soluble”; in series [5] (PO assay conditions, 400 μM), “not sufficiently soluble”. Also, in series [5] (PBS with 5% DMSO, aqueous with cosolvent or surfactant or cyclodextrin, kinetic from dmso stock, read-out: solubility in aqueous environments), the solubility was less than 300 µM.

B1: S. cerevisiae PDC (Saccharomyces cerevisiae S288C) (protein)
chain: SEITLGKYLFERLKQVNVNTVFGLPGDFNLSLLDKIYEVEGMRWAGNANELNAAYAADGYARIKGMSCIITTFGVGELSALNGIAGSYAEHVGVLHVVGVPSISAQAKQLLLHHTLGNGDFTVFHRMSANISETTAMITDIATAPAEIDRCIRTTYVTQRPVYLGLPANLVDLNVPAKLLQTPIDMSLKPNDAESEKEVIDTILALVKDAKNPVILADACCSRHDVKAETKKLIDLTQFPAFVTPMGKGSIDEQHPRYGGVYVGTLSKPEVKEAVESADLILSVGALLSDFNTGSFSYSYKTKNIVEFHSDHMKIRNATFPGVQMKFVLQKLLTTIADAAKGYKPVAVPARTPANAAVPASTPLKQEWMWNQLGNFLQEGDVVIAETGTSAFGINQTTFPNNTYGISQVLWGSIGFTTGATLGAAFAAEEIDPKKRVILFIGDGSLQLTVQEISTMIRWGLKPYLFVLNNDGYTIEKLIHGPKAQYNEIQGWDHLSLLPTFGAKDYETHRVATTGEWDKLTQDKSFNDNSKIRMIEIMLPVFDAPQNLVEQAKLTAATNAKQ
notes: purchased Sigma
As for B1, the Michaelis constant (Km) in series [6] was 15 µM.
